Active and inactive are the calls of the source. The rule behind the calls is not given here.
Legend:
[1] = Ratio of drug concentration in blood to plasma in BALB/c mouse at 10 mg/kg, po measured at 3 hrs; assay type: ADME, organism-based; conditions: in vivo
BV-2 [2] = assay: Anti-neuroinflammatory activity in mouse BV-2 cells assessed as inhibition of LPS-induced NO production incubated for 24 hrs by microplate reader analysis; assay type: functional, cell-based; conditions: BV-2, 24 h
[3] = molecular target: Pyruvate kinase PKM (Mus musculus) (UniProt P52480); assay: Activation of PKM2 in mouse BV-2 cells assessed as increase in ATP level at 10 uM measured for 6 hrs; assay type: cell-based; conditions: filed as activator
Sequence of Pyruvate kinase PKM (Mus musculus) (P52480 whole entry): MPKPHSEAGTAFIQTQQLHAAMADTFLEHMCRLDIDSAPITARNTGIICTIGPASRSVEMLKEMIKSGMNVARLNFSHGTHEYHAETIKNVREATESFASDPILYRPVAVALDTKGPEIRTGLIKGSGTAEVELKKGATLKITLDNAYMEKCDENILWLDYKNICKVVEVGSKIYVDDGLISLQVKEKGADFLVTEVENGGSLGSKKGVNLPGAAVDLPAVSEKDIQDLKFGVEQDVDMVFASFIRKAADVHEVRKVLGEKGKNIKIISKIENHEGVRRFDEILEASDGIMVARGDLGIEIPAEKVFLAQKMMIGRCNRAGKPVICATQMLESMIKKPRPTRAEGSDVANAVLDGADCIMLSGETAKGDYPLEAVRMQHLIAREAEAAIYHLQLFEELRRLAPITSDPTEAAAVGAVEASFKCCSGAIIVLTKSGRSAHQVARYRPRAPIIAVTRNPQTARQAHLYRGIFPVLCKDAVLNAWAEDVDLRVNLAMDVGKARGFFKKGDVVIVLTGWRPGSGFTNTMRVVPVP

BV-2 [4] = assay: Anti-neuroinflammatory activity in LPS-induced mouse BV-2 cells assessed as formation of amoeboid-shaped cells at 10 uM incubated for 24 hrs by inverted microscopic analysis; assay type: functional, cell-based
Mus musculus [5] = assay: Anti-neuroinflammatory activity in morphine-induced BALB/c mouse assessed as inhibition of IL-1beta expression in NAc region 0.2 mg/kg, ip; assay type: functional, organism-based
Mus musculus [6] = assay: Anti-neuroinflammatory activity in morphine-induced BALB/c mouse assessed as inhibition of Iba1 expression in mPFC region 0.2 mg/kg, ip; assay type: functional, organism-based
[7] = Toxicity in BALB/c mouse assessed as effect on grooming behavior at 20 mg/kg, ip measured administered once daily for 7 days and measured after 24 hrs by open field test; assay type: organism-based; conditions: in vivo, 192 h
BV-2 [8] = assay: Anti-neuroinflammatory activity in LPS-induced mouse BV-2 cells assessed as reduction in TNF-alpha mRNA expression by qRT-PCR analysis; assay type: functional, cell-based; conditions: dose 1-10 µM
BV-2 [9] = assay: Inhibition of LPS-induced LDH release in mouse BV-2 cells at 10 uM incubated for 6 hrs; assay type: functional, cell-based
[10] = molecular target: Pyruvate kinase PKM (Mus musculus) (UniProt P52480); assay: Competitive inhibition of CIAC001-P1 probe binding to PKM2 in mouse BV-2 cells at 20 uM pretreated for 2 hrs followed by UV light treatment and measured after 30 mins by silver staining based Streptavidin-pull down assay; assay type: cell-based; conditions: time 2.5 hrs
[11] = Toxicity in BALB/c mouse assessed as cognitive impairment by measuring time spent on new arm at 20 mg/kg, ip administered once daily for 3 days and measured after 45 mins by Y maze test; assay type: organism-based; conditions: in vivo, 72.75 h, time 4365 min
Mus musculus [12] = assay: Anti-neuroinflammatory activity in naloxone precipitated morphine-induced ip dosed BALB/c mouse assessed as reduction in naloxone precipitated withdrawal jumps administered with morphine 3 times daily for 3 days and on day 4 for 3 hrs prior to compound addition for 30 mins before naloxone addition and measured after 15 mins; assay type: functional, organism-based; conditions: dose 0.2-20 µg/kg, time 45.0 min
[13] = molecular target: Pyruvate kinase PKM (Mus musculus) (UniProt P52480); assay: Binding affinity to PKM1 in mouse BV-2 cells at 20 uM by Western blot analysis; assay type: cell-based
[14] = Toxicity in BALB/c mouse assessed as effect on locomotor activity at 20 mg/kg, ip measured administered once daily for 7 days and measured after 24 hrs by open field test; assay type: organism-based; conditions: in vivo, 192 h
[15] = MRT in BALB/c mouse at 10 mg/kg, po measured upto 4 hrs by mS-HPLC analysis; assay type: ADME, organism-based; conditions: in vivo
Mus musculus [16] = assay: Inhibition of morphine-induced Hif-1alpha overexpression in BALB/c mouse at 0.2 mg/kg, ip measured for 7 days; assay type: functional, organism-based; conditions: time 7.0 day
Mus musculus [17] = assay: Anti-neuroinflammatory activity in morphine-induced BALB/c mouse assessed as inhibition of behavioral sensitization at 0.2 mg/kg, ip administered once daily for 7 days; assay type: functional, organism-based; conditions: time 7.0 day
[18] = Toxicity in BALB/c mouse assessed as effect on respiratory rate at 20 mg/kg, ip measured on day 2 and 5; assay type: organism-based; conditions: in vivo, 120 h, time 5 day
[19] = Toxicity in BALB/c mouse assessed as rewarding effect at 20 mg/kg, ip measured after 6 days by CPP analysis; assay type: organism-based; conditions: in vivo, 144 h, time 6 day
Mus musculus [20] = assay: Anti-neuroinflammatory activity in morphine-induced BALB/c mouse assessed as inhibition of IL-1beta expression in VTA region 0.2 mg/kg, ip; assay type: functional, organism-based
BV-2 [21] = assay: Inhibition of LPS-induced LDHA mRNA overexpression in mouse BV-2 cells at 10 uM incubated for 6 hrs; assay type: functional, cell-based
BV-2 [22] = assay: Anti-neuroinflammatory activity in LPS-induced mouse BV-2 cells assessed as reduction in […] mRNA expression by qRT-PCR analysis; assay type: functional, cell-based; conditions: dose 1-10 µM
[23] = Half life in BALB/c mouse at 10 mg/kg, po measured upto 4 hrs by mS-HPLC analysis; assay type: ADME, organism-based; conditions: in vivo
[24] = Cmax in BALB/c mouse at 10 mg/kg, po measured upto 4 hrs by mS-HPLC analysis; assay type: ADME, organism-based; parameters: time < 4 hrs, dose 10 mg/kg, route po; conditions: in vivo
BV-2 [25] = assay: Anti-neuroinflammatory activity in LPS-induced mouse BV-2 cells assessed as reduction in iNOS mRNA expression at 10 uM incubated for 24 hrs by qRT-PCR analysis; assay type: functional, cell-based
[26] = Therapeutic index, ratio of IC50 for cytotoxicty against mouse BV-2 cells assessed as reduction in cell viability by crystal violet staining based assay to IC50 for nti-neuroinflammatory activity in mouse BV-2 cells assessed as inhibition of LPS-induced NO production; assay type: toxicity; conditions: read-out: Ratio IC50
Mus musculus [27] = assay: Anti-neuroinflammatory activity in morphine-induced BALB/c mouse assessed as […] in locomotor activity 0.2 mg/kg, ip administered once daily for 7 days and measured after 60 mins; assay type: functional, organism-based; conditions: time 169.0 hrs
[28] = Cytotoxicity against mouse BV-2 cells assessed as reduction in cell viability by crystal violet staining based assay; assay type: toxicity
[29] = Tmax in BALB/c mouse plasma at 10 mg/kg, po measured upto 4 hrs by mS-HPLC analysis; assay type: ADME, organism-based
BV-2 [30] = assay: Anti-neuroinflammatory activity in LPS-induced mouse BV-2 cells assessed as reduction in IL-6 mRNA expression by qRT-PCR analysis; assay type: functional, cell-based; conditions: dose 1-10 µM
BV-2 [31] = assay: Inhibition of LPS-induced PKM2 monomer in mouse BV-2 cells at 10 uM; assay type: functional, cell-based
[32] = Toxicity in BALB/c mouse assessed as assessed as effect on body weight at 20 mg/kg, ip measured administered once daily for 7 days and; assay type: organism-based; conditions: in vivo, 168 h, time 7 day
BV-2 [33] = assay: Anti-neuroinflammatory activity in LPS-induced mouse BV-2 cells assessed as reduction in […] mRNA expression at 10 uM incubated for 24 hrs by qRT-PCR analysis; assay type: functional, cell-based
[34] = molecular target: Pyruvate kinase PKM (Mus musculus) (UniProt P52480); assay: Binding affinity to PKM2 in mouse BV-2 cells assessed as thermal stabilization by measuring change in melting temperature incubated for 2 hrs by Western blot analysis; assay type: cell-based
[35] = Toxicity in BALB/c mouse assessed as effect on rubbing behavior at 20 mg/kg, ip measured administered once daily for 7 days and measured after 24 hrs by open field test; assay type: organism-based; conditions: in vivo, 192 h
[36] = molecular target: Pyruvate kinase PKM (Mus musculus) (UniProt P52480); assay: Binding affinity to PKM2 in mouse BV-2 cells at 20 uM by Western blot analysis; assay type: cell-based
BV-2 [37] = assay: Inhibition of LPS-induced nuclear translocation in mouse BV-2 cells incubated for 6 hrs by Western blot analysis; assay type: functional, cell-based
BV-2 [38] = assay: Anti-neuroinflammatory activity in LPS-induced mouse BV-2 cells assessed as reduction in IL-1beta mRNA expression at 10 uM incubated for 24 hrs by qRT-PCR analysis; assay type: functional, cell-based
Mus musculus [39] = assay: Anti-neuroinflammatory activity in morphine-induced BALB/c mouse assessed as decrease in conditioned place preference behavior 0.2 mg/kg, ip pretreated for 6 days followed by morphine induction and measured on days 5 to 9 days; assay type: functional, organism-based; conditions: time 11-15 day
[40] = molecular target: Pyruvate kinase PKM (Mus musculus) (UniProt P52480); assay: Competitive inhibition of CIAC001-P2 probe binding to PKM2 in mouse BV-2 cells at 20 uM pretreated for 2 hrs followed by UV light treatment and measured after 30 mins by silver staining based Streptavidin-pull down assay; assay type: cell-based; conditions: time 2.5 hrs
[41] = Tmax in BALB/c mouse brain at 10 mg/kg, po measured upto 4 hrs by mS-HPLC analysis; assay type: ADME, organism-based
BV-2 [42] = assay: Inhibition of LPS-induced PKM2 tetramer in mouse BV-2 cells at 10 uM; assay type: functional, cell-based
Pyruvate kinase PKM = Pyruvate kinase PKM (Mus musculus, UniProt P52480); assay: Binding affinity to PKM2 in mouse BV-2 cells by Western blot analysis; assay type: cell-based
Sequence of Pyruvate kinase PKM (P52480 whole entry): as above

[43] = AUC (0 to t) in BALB/c mouse at 10 mg/kg, po measured upto 4 hrs by mS-HPLC analysis; assay type: ADME, organism-based; conditions: in vivo
[44] = molecular target: Cannabinoid receptor (Homo sapiens) (UniProt P34972+P21554); assay: Agonist activity at CB1/CB2 (unknown origin) receptor expressed in HEK293 cells assessed as inhibition of forskolin-stimulated cAMP accumulation incubated for 2 hrs by microplate reader analysis; assay type: functional, cell-based; conditions: filed as agonist
Sequence of Cannabinoid receptor (Homo sapiens) (P21554 whole entry, looked up): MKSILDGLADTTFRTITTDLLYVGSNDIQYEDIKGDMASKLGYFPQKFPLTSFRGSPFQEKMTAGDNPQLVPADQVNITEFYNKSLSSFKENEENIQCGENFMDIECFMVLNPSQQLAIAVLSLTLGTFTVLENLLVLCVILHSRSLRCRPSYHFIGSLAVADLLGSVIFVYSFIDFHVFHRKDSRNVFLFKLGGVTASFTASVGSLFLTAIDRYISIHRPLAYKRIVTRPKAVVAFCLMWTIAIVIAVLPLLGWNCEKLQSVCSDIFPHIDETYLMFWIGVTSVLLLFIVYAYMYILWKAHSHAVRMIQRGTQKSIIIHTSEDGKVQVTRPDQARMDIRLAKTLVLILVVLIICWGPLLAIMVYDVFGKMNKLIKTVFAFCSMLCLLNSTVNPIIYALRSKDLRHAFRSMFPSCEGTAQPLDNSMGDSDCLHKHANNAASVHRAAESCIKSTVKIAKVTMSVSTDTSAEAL
Sequence of Cannabinoid receptor (Homo sapiens) (P34972 whole entry, looked up): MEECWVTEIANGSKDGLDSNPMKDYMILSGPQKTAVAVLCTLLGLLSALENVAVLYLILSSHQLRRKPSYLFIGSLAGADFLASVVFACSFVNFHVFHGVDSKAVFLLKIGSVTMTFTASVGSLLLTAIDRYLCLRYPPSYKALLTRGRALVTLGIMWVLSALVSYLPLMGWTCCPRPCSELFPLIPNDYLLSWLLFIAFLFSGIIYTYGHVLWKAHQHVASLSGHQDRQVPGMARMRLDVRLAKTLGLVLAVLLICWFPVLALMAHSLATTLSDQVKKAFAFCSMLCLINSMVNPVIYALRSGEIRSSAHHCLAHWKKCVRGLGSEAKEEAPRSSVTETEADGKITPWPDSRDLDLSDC

Mus musculus [45] = assay: Anti-neuroinflammatory activity in morphine-induced BALB/c mouse assessed as inhibition of IL-1beta expression in mPFC region 0.2 mg/kg, ip; assay type: functional, organism-based

Question: For `C=C(C)[C@@H]1CCC(C)=C[C@H]1c1c(O)cc(C(C)n2nccn2)cc1O` (stereo partly specified), which Ratio [1] is on record?
Answer: The Ratio was under 200%.

Question: What about the IC50 (BV-2 [2]) of the same compound?
Answer: The IC50 was 2500 nM.

Question: And the Activity [3]?
Answer: Its Activity is “Active”.

Question: And the Activity (BV-2 [4])?
Answer: Its Activity is “Active”.

Question: And the Activity (Mus musculus [5])?
Answer: Its Activity is “Active”.

Question: What about the Activity (Mus musculus [6]) of the same compound?
Answer: The Activity was “Active”.

Question: What about the Activity [7] of the same compound?
Answer: Its Activity is “Non-Toxic”.

Question: And the Activity (BV-2 [8])?
Answer: Its Activity is “Dose-Dependent Effect”.

Question: What about the inhibition (BV-2 [9]) of the same compound?
Answer: Its inhibition is “Active”.

Question: What about the inhibition [10] of the same compound?
Answer: Its inhibition is “Active”.

Question: And the Activity [11]?
Answer: Its Activity is “Non-Toxic”.

Question: What about the Activity (Mus musculus [12]) of the same compound?
Answer: Its Activity is “Dose-Dependent Effect”.

Question: And the Activity [13]?
Answer: Its Activity is “Active”.

Question: And the Activity [14]?
Answer: The Activity was “Non-Toxic”.

Question: What about the MRT [15] of the same compound?
Answer: Its MRT is 54 min.

Question: What about the inhibition (Mus musculus [16]) of the same compound?
Answer: Its inhibition is “Active”.

Question: And the Activity (Mus musculus [17])?
Answer: The Activity was “Active”.

Question: And the Activity [18]?
Answer: Its Activity is “Non-Toxic”.

Question: And the Activity [19]?
Answer: The Activity was “Non-Toxic”.

Question: And the Activity (Mus musculus [20])?
Answer: Its Activity is “Active”.

Question: What about the inhibition (BV-2 [21]) of the same compound?
Answer: Its inhibition is “Active”.

Question: What about the Activity (BV-2 [22]) of the same compound?
Answer: Its Activity is “Dose-Dependent Effect”.

Question: What about the half-life [23] of the same compound?
Answer: The half-life was 48 min.

Question: What about the Cmax [24] of the same compound?
Answer: The Cmax was 175 ng/g.

Question: What about the Activity (BV-2 [25]) of the same compound?
Answer: The Activity was “Active”.

Question: And the selectivity ratio [26]?
Answer: The selectivity ratio was 23.1.

Question: What about the Activity (Mus musculus [27]) of the same compound?
Answer: The Activity was “Active”.

Question: And the IC50 [28]?
Answer: Its IC50 is 57800 nM.

Question: And the Tmax [29]?
Answer: Its Tmax is 18 min.

Question: And the Activity (BV-2 [30])?
Answer: The Activity was “Dose-Dependent Effect”.

Question: And the inhibition (BV-2 [31])?
Answer: The inhibition was “Active”.

Question: What about the Activity [32] of the same compound?
Answer: The Activity was “Non-Toxic”.

Question: And the Activity (BV-2 [33])?
Answer: Its Activity is “Active”.

Question: What about the ΔTm [34] of the same compound?
Answer: The ΔTm was 3.9 °C.

Question: And the Activity [35]?
Answer: Its Activity is “Non-Toxic”.

Question: What about the Activity [36] of the same compound?
Answer: Its Activity is “Active”.

Question: And the inhibition (BV-2 [37])?
Answer: Its inhibition is “Active”.

Question: And the Activity (BV-2 [38])?
Answer: The Activity was “Active”.

Question: What about the Activity (Mus musculus [39]) of the same compound?
Answer: The Activity was “Active”.

Question: And the inhibition [40]?
Answer: The inhibition was “Active”.

Question: And the Tmax [41]?
Answer: Its Tmax is 30 min.

Question: What about the inhibition (BV-2 [42]) of the same compound?
Answer: The inhibition was “Active”.

Question: What about the Kd (Pyruvate kinase PKM) of the same compound?
Answer: The Kd was 2200 nM.

Question: What about the AUCt [43] of the same compound?
Answer: Its AUCt is 172.8 ng·h/g.

Question: And the Activity [44]?
Answer: The Activity was “Active”.

Question: What about the Activity (Mus musculus [45]) of the same compound?
Answer: The Activity was “Active”.

Reference: ChEMBL document CHEMBL5360639, “Cannabidiol Analogue CIAC001 for the Treatment of Morphine-Induced Addiction by Targeting PKM2” (J Med Chem, 2023)
